What was measured:
RHOGDI1 = biological target: T1, RHOGDI1 (Homo sapiens, UniProt P52565); assay: Fluorescence polarization competition with FITC-labelled GerGer-Rab1 peptide; format: binding; details: 5 μM FITC-labelled GerGer-Rab1 peptide, 50 μM RHOGDI1
T1 construct: GST; made in house; host or cells: E. coli
Protocol: Figure 4 Compound 7 a is a RHOGDI1 inhibitor. a) Structure of the affinity probes 8 and 9. b) Affinity‐based enrichment of RHOGDI1 from NIH/3T3 lysates by probe 8 as compared to probe 9 and detection using a RHOGDI1 antibody. c) Competition pulldown was performed as in b in presence of S10a as a competitor. d) Structure of the fluorescent derivative 10. e) Binding of derivative 10 to RHOGDI1‐3. […] Fluorescence polarization measurements using 10 and RHOGDI1‐3. […] Representative data (n=3). P: pellet; S: supernatant. g) Competition of derivative 10 with RAC1. Fluorescence polarization measurements after adding 2 μM prenylated RAC1 or non‐prenylated RAC1 to 2 μM compound 10 and 5 μM RHOGDI1. Representative data (n=3). h) Fluorescence polarization measurements upon titration of 7 a into a mixture of 5 μM FITC‐labelled GerGer‐Rab1 peptide and 50 μM RHOGDI1.

[1] = test system: GTP-bound RHO GTPases (RHOA, RAC1, CDC42); assay: G-LISA activation assays; format: cell-based; details: 10 μM, 24 h
Protocol: 40,000 x g for 30 min at 4°C. Supernatants were collected as cytoplasmic fraction and pellets were resuspended into a homogenization buffer (0.25 M sucrose, 20 mM Tris/HCl pH 7.4, 25 mM KCl, 5 mM MgCl2) and further centrifuged (2 h at 100,000 x g) using an iodixanol (OptiPrep, Axis Shield) gradient solution. Obtained fractions were used for immunoblotting.
NIH/3T3 cells were seeded in a 96 plate (10,000 cell per well/ plate name: Essen Bioscience NO 4379). NIH/3T3 cells were grown till 80% confluence and then serum starved (0 % FCS) for 24 h. Scratch was performed using the Incucyte Woundmaker Tool. Next, 10 µM Rhonin was added to the wells. As controls, 2 µg/ml RHO inhibitor I (cat#CT04/ cytoskeleton) and 0.5% DMSO were used. Cell migration was monitored using IncuCyte ZOOM for a period of 48 h. The images were analyzed by the Incucyte Scratch Wound Analysis Software.
G-LISA activation assays for RHOA, RAC1 and CDC42 […]
GTPase primary antibody (RAC1, CDC42 or RHOA) was added and the tubes and were incubated for 45 min at room temperature. […] Absorption was detected at 490 nm using a plate reader (Tecan Sparks).
Aqueous solubility of compounds was assessed by determination of the kinetic solubility of a test compound in aqueous buffer compared to a solution in organic solvent (acetonitrile). […]

[2] = Parallel artificial membrane permeability assay (PAMPA); format: in vitro ADME; details: initial 500 µM in donor, 20 h
Protocol: 500 µM final compound concentrations. The kinetic solubility of the compound solutions in HEPES buffer pH 7.4 were then compared to a solution in the organic solvent (ACN) after vigorous shaking on an orbital shaker at room temperature for 90 min. Therefore, the spectrum 250 -500 nm was recorded using the Spectramax plate reader. Precipitated material was removed by filtration prior to analysis. Each sample was tested in triplicate.
Aqueous solubility was also determined using a turbidimetric assay. DMSO stock solutions were diluted in DMSO to produce a range of concentrations. These were then added to PBS buffer pH7.4 (final test compound concentrations: 1 µM, 3 µM, 10 µM, 30 µM, 100 µM, 1% final DMSO concentration, 7 replicates per concentration). After 2 h incubation period at room temperature, the absorbance at 620 nm was read for each concentration and each replicate using a Spectramax plate reader.
Permeability through artificial membranes assay (PAMPA)
Permeability through artificial membranes (phospholipid/cholesterol in dodecane) was assessed at an initial compound concentration of 500 µM in the donor compartment. Absorption of the receiver wells was determined by spectrophotometrical measurement using a Spectramax absorbance plate reader after 20 h of incubation. Permeation was calculated by normalization of compound flux across a blank filter. […]

T1 sequence (P52565 whole entry): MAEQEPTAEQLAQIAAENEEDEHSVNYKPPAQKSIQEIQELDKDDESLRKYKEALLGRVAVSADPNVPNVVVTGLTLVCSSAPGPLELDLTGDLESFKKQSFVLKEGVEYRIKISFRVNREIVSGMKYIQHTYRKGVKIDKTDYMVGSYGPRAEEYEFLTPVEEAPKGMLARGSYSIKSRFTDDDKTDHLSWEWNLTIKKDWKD

Competition with binding of RHOGDI1 to GerGer-RAB1 peptide (in words) (RHOGDI1)	SMILES	Levels of GTP-bound RHO GTPases (in words) [1]	permeability, flux in PAMPA [2] [%]
competed	COC(=O)C1(C(CC(=O)c2ccccc2)c2ccccc2)N=C(c2ccc(Br)cc2)C2C(=O)N(C)C(=O)C21 (stereo not drawn) [7a]		
	COC(=O)C1(C(CC(=O)c2cccnc2)c2ccccc2)N=C(c2ccc(Br)cc2)C2C(=O)N(C)C(=O)C21 (stereo not drawn) [7l]	increased	41.1

Reference: publication PMC9313812, “The Pseudo‐Natural Product Rhonin Targets RHOGDI” (Angewandte Chemie (International Ed. in English), 2022)
